# Measurements from US8003595B2, “Amino acid sequences facilitating penetration of a substance of interest into cells and/or cell nuclei” (Cellectis, priority 2000, dated 2011).
# Read-outs that look alike come from different tables or passages of the source. Marks after values point to notes of the source that are not given here. Where no end group is shown, it is not given here.
# B1: Peroxidase (PO): peroxidase transported by the transporter [peptide-IgG anti-PO] (protein)
# chain: QLTPTFYDNSCPNVSNIVRDTIVNELRSDPRIAASILRLHFHDCFVNGCDASILLDNTTSFRTEKDAFGNANSARGFPVIDRMKAAVESACPRTVSCADLLTIAAQQSVTLAGGPSWRVPLGRRDSLQAFLDLANANLPAPFFTLPQLKDSFRNVGLNRSSDLVALSGGHTFGKNQCRFIMDRLYNFSNTGLPDPTLNTTYLQTLRGLCPLNGNLSALVDFDLRTPTIFDNKYYVNLEEQKGLIQSDQELFSSPNATDTIPLVRSFANSTQTFFNAFVEAMDRMGNITPLTGTQGQIRLNCRVVNSNS
# B2: Biotinylated PO: biotinylated peroxidase transported by the transporter [peptide-IgG anti-PO] (protein)
# chain: B1 chain
# What was measured:
# 3T3 cells = test: Heparin inhibition of internalization of peptide-peroxidase conjugates; format: cell-based, mouse
# Protocol: (§1) a) Heparin (50 μg/ml) was incubated with the cells for 1 hour before adding the peptide-peroxidase conjugates at 0.2 μg/ml for 2 hours. The cells were then lysed and the peroxidase dosed.
# (§2) The quantity of heparin necessary to inhibit 50% penetration of the peptides coupled to peroxidase was evaluated with these two types of cells, by incubating the cells with the peptide-peroxidase conjugates with increasing concentrations of heparin. The results of inhibiting internalization of the peptides are expressed as the heparin concentration (μg/ml) in Table 2 below.
# [1] = ELISA fixation of biotinylated peptides on sensitized plates; format: binding; conditions: read-out: avidity (Kd), quantity of peptides necessary to obtain 50% fixation, Chondroitin C; Table 5
# H1299 cells [2] = test: Internalization of biotinylated peptide/S-PO complexes; format: cell-based, human; conditions: peptide: S-PO complexes of 4:1, peptide concentration of 1 μg
# Summary of the method: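 Biotinylated peptides precomplexed 15 min with streptavidin- or avidin-peroxidase at 25:1 or 4:1 peptide:conjugate molar ratio in PBS, diluted in complete medium and incubated with H1299 cells for 4 h. After washing and lysis, internalised peroxidase quantified with ortho-dianisidine/H2O2 at 450 nm against an S-PO standard curve, as pg per 10^4 cells.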
# H1299 cells [3] = test: Internalization of covalent peptide-peroxidase conjugates; format: cell-based, human; conditions: Table 9; H1299; 0.2 μg/ml conjugate, 2 hours
# Protocol: (§3) To evaluate more directly the penetration of the peptides, avoiding the avidin-peroxidase bias, some of the peptides in sequences SEQ ID NO: 25 to 48 were conjugated covalently with cysteine in the C-terminal position of the peptide to peroxidase. The peptides were coupled with peroxidase in the following way:
# (§4) One mg of peroxidase activated with maleimide (Sigma) in 100 μl of sodium phosphate buffer, NaCl 0.15 M, EDTA 5 mM, had 1 mg of peptide added to it. After 2 hours at laboratory temperature, β-mercaptoethanol is added to a final concentration of 1.5 mM for 15 minutes. The uncoupled peptide is eliminated by centrifugation on ultrafiltration membranes (cut-off threshold=30,000 Daltons, Sartorius), followed by three washings in sodium phosphate buffer 0.1 M, pH 7.4 containing 0.15 M NaCl.
# The H1299 cells are incubated for 2 hours with the conjugates at increasing concentrations of peptide-peroxidase in the culture medium, then washed with PBS. The cells are lysed and the quantity of peptide internalized is evaluated by the dosage of peroxidase in the lysate of the cells with reference to a curve established with peptide-peroxidase.
# The quantity of peptide internalized (pg/10^3 cells), depending on the concentrations of conjugates in the culture medium, is shown in Table 8 below.
# (§5) It appears that the higher the concentration of peptide-peroxidase conjugate in the culture medium, the more the quantity internalized increases. To compare the penetration of the conjugates by cell type, the cells from different lines were incubated with 0.2 μg/ml of peptide-peroxidase conjugate for 2 hours, and the quantity of peroxidase dosed in the lysates. Table 9 and Table 9B below give the results expressed in pg/10^3 cells. The quantity of each peptide internalized in the different lines generally varies only from single to double.
# HeLa = test: as above; format: cell-based, human; conditions: Table 9, 0.2 μg/ml conjugate, 2 hours
# Protocol: as §3, §4, §5
# [4] = ELISA fixation of biotinylated peptides on sensitized plates; format: binding; conditions: read-out: avidity (Kd), quantity of peptides necessary to obtain 50% fixation, Chondroitin A; Table 5
# HeLa cells [5] = test: Heparin inhibition of internalization of peptide-peroxidase conjugates; format: cell-based, human
# Protocol: as §1, §2
# [6] = ELISA fixation of biotinylated peptides on sensitized plates; format: binding; conditions: read-out: avidity (Kd), quantity of peptides necessary to obtain 50% fixation, Chondroitin B; Table 5
# 3T3 = test: Internalization of covalent peptide-peroxidase conjugates; format: cell-based, mouse; conditions: Table 9, 0.2 μg/ml conjugate, 2 hours
# Protocol: as §3, §4, §5
# [7] = ELISA fixation of biotinylated peptides on sensitized plates; format: binding; conditions: read-out: avidity (Kd), quantity of peptides necessary to obtain 50% fixation, Heparin; Table 5
# Protocol: The capacity of peptides SEQ ID NO: 1 to 21 to attach themselves to DNA and heparin is evaluated on ELISA plates sensitized with DNA or heparin. Dilutions of biotinylated peptides are deposited on the plates and their fixation is shown using streptavidin conjugated with peroxidase. […] The avidity of each of the peptides for DNA or heparin is evaluated by the quantity (×10^−6 M) of peptides necessary to obtain 50% fixation.
# HT29 cells = test: Growth inhibition by peptide-cytochrome C conjugates (MTT); format: cell-based, human
# Protocol: (§6) H1299 or HT29 cells (3×10^4 cells/well) are cultivated in 96-well plates for 48 hours at 37° C. in the complete culture medium RPMI with decreasing concentrations (200-3 μg/ml) of natural cytochrome C or cytochrome C conjugated with peptides added, and the culture is continued for 48 hours.
# (§7) Table 25 gives the inhibition of growth of the cells by the […].
# H1299 cells [8] = test: as above; format: cell-based, human
# Protocol: as §6, §7
# H1299 cells [9] = test: Penetration of peptide-cytochrome C conjugates (microscopy); format: cell-based, human; set-up: key: +++: intense; ++: positive; +: slightly positive; −: negative; conditions: 4 hours
# Protocol: The penetration of the peptide-cytochrome C conjugates is evaluated with some conjugates prepared with peptides having a biotin on the N-terminal side. H1299 cells are cultivated in the presence of the different (biotinylated) peptide-cytochrome C conjugates at decreasing concentrations (100 to 25 μg/ml) in the culture medium for 4 hours at 37° C. At the end of the culture, the cells are washed three times with PBS, then fixed 15 minutes in ethanol at −20°. The penetration of the peptide-biotin-cytochrome C conjugate is evaluated after incubation for 60 minutes with some avidin coupled with peroxidase. The cells are then washed with PBS, and the activity of the peroxidase is indicated by diaminobenzidine in the presence of H2O2.
# The penetration dependent on the concentration of conjugates in the culture medium is evaluated under the microscope by the intensity of the coloration expressed by crosses. Table 24 indicates the penetration of the peptide-cytochrome C conjugates in the cells.
# HH9 tumors = system: HH9 tumors; set-up: species or system nude mice; conditions: mouse, in vivo
# Protocol: The nude mice received subcutaneous transplants of HH9 tumor cells as described above. On day 9 after the transplant, the mice received twice a week, by peritumoral injection, 100 μg of RNase, or 65 μg of peptide (HBP3)2 or 65 μg of peptide (HBP3)2+100 μg of RNase, or 100 μg of peptide conjugate (HBP3)2-RNase or HBP6-RNase conjugate. On day 26, the mice were killed and their tumors weighed.
# [10] = system: Salmonella typhiTy2 (WHO); test: microbe, parasite or virus in culture; format: cell-based, S. typhi-Ty2; conditions: S. typhi-Ty2
# Protocol: (§8) The gram-positive bacterial strains are: Enterococcus faecalis (ATCC 29212), and Staphylococcus aureus (ATCC 25923) and the gram-negative strains are: Escherichia coli (ATCC 25922), Pseudomonas aeruginosa (ATCC 27853) and Salmonella typhimurim (clinical isolate), Salmonella typhiTy2 (WHO). The bacteria are cultured with shaking all night at 37° C., then recultured at a dilution of 1:50 in some fresh Luria-Bertani (LB) medium for 2 hours. The bacterial concentration is adjusted to […], and 50 μl is distributed in 96-well plates with an equal volume of peptides diluted half and half (256-0.5 μg/ml) in LB medium. […] To determine the minimum bactericide concentration, 10 μl from each well is spread on gelose plates in LB medium.
# (§9) The results are expressed as the peptide concentration in MBC (μM).
# [11] = system: Enterococcus faecalis (ATCC 29212); test: microbe, parasite or virus in culture; format: cell-based; conditions: ATCC 29212
# Protocol: as §8, §9
# [12] = system: Escherichia coli (ATCC 25922); test: microbe, parasite or virus in culture; format: cell-based; conditions: ATCC 25922; read-out: MBC
# Protocol: as §8, §9
# [13] = system: Pseudomonas aeruginosa (ATCC 27853); test: microbe, parasite or virus in culture; format: cell-based; conditions: ATCC 27853
# Protocol: as §8, §9
# [14] = system: Staphylococcus aureus (ATCC 25923); test: microbe, parasite or virus in culture; format: cell-based; conditions: ATCC 25923
# Protocol: as §8, §9
# [15] = system: gram-positive and gram-negative bacterial strains; test: Antibacterial activity of cationic peptides, summary over strains; format: cell-based; conditions: summary of Table 29
# Protocol: as §8
# However, when peptide HPB13 (SEQ ID NO: 38) is coupled with peptide SEQ ID NO: 24, it enhances its activity by a factor of 50 to 100 (peptide SEQ ID NO: 45). […] None these peptides are active on gram-positive bacteria.
# HeLa cells [16] = test: Penetration of peroxidase transported by peptide-IgG anti-PO transporter; format: cell-based, human; conditions: via the transporter [peptide-IgG anti-PO]
# Protocol: Two mg of specific monoclonal IgG antibody of peroxidase or their fragment F(ab′)2 in 1 ml of potassium phosphate buffer 0.1 M, pH 7.4 are added to 110 μg of SMCC [succinimidyl 4-(N-maleimidomethyl)cyclohexane-1-carboxylate] in 11 μl of dimethylsulfoxide. The solution is incubated for 45 minutes at laboratory temperature. The excess reagent is eliminated by centrifugation on ultrafiltration membranes (cutoff threshold =10,000 Da, Vivascience), followed by three washings in sodium phosphate buffer 10 mM, pH 7 containing 0.5 M of NaCl and 5 mM of EDTA.
# The peptide is then coupled in a molar ratio of 6 peptides to 1 IgG or 1 F(ab′)2 in the sodium phosphate buffer 10 mM, pH 7, containing 0.5 M of NaCl and 5 mM of EDTA for three hours at laboratory temperature. Then, the excess uncoupled peptide is totally eliminated by centrifugation on ultrafiltration membranes, as in the preceding step. These transporters [peptide-IgG anti-PO] are added to the peroxidase or the biotinylated peroxidase in some 0.5 M NaCl buffer. The solution is incubated for 1 hour at laboratory temperature. The molar ratio of this reaction is 2 PO/1 IgG or F(ab′)2. […]
# To measure the quantity of PO internalized, the cells are trypsinized, transferred into microtubes and counted. […]
molecule,measurement,setting,value
GRPRESGKKRKRKRLKP [SEQ ID NO: 21],heparin concentration necessary to inhibit 50% penetration of the peptides coupled to peroxidase,3T3 cells,4.1 µg/mL
same,Kd,[1],12 nM
same,S-PO internalized,H1299 cells [2],1680 pg/10^4 cells
same,Internalization of Peptide-peroxidase,H1299 cells [3],21.9 pg/10^3 cells
same,Internalization of Peptide-peroxidase,HeLa,13.2 pg/10^3 cells
same,Kd,[4],135 nM
same,heparin concentration necessary to inhibit 50% penetration of the peptides coupled to peroxidase,HeLa cells [5],2.3 µg/mL
same,Kd,[6],110 nM
same,Internalization of Peptide-peroxidase,3T3,83.7 pg/10^3 cells
same,Kd,[7],16 nM
"Natural cytochrome C: hemoprotein, single polypeptide chain of 104 amino acids",% inhibition of growth,HT29 cells; 12.5 μg/ml,0%
same,% inhibition of growth,HT29 cells; 25 μg/ml,0%
same,% inhibition of growth,HT29 cells; 50 μg/ml,10%
same,% inhibition of growth,HT29 cells; 100 μg/ml,19%
same,% inhibition of growth,HT29 cells; 200 μg/ml,12* %
same,% inhibition of growth,H1299 cells [8]; 3 μg/ml,0%
same,% inhibition of growth,H1299 cells [8]; 6 μg/ml,0%
same,% inhibition of growth,H1299 cells [8]; 12.5 μg/ml,0%
same,% inhibition of growth,H1299 cells [8]; 25 μg/ml,0%
same,% inhibition of growth,H1299 cells [8]; 50 μg/ml,0%
same,% inhibition of growth,H1299 cells [8]; 100 μg/ml,0* %
same,"penetration, intensity of the coloration",H1299 cells [9]; 25 μg/ml,−
same,"penetration, intensity of the coloration",H1299 cells [9]; 50 μg/ml,−
same,"penetration, intensity of the coloration",H1299 cells [9]; 100 μg/ml,−*
SERKKRRRESRKKRRRES [SEQ ID NO: 26],Inhibition of the growth of the tumors,HH9 tumors,10%
VKRGLKLVKRGLKLVKRGLKL [SEQ ID NO: 3],MBC,[10],1.65 µM
same,MBC,[11],>106 µM
same,MBC,[12],13.25 µM
same,MBC,[13],26.5 µM
same,MBC,[14],>106 µM
same,Kd,[1],35 nM
same,S-PO internalized,H1299 cells [2],642 pg/10^4 cells
same,Internalization of Peptide-peroxidase,H1299 cells [3],17.7 pg/10^3 cells
same,Internalization of Peptide-peroxidase,HeLa,11.2 pg/10^3 cells
same,bactericide / anti-microbial activity,[15],has bactericide activity
same,Kd,[4],37 nM
same,Kd,[6],41 nM
same,Internalization of Peptide-peroxidase,3T3,24.6 pg/10^3 cells
same,Kd,[7],41 nM
B1,Quantity of molecules internalized,HeLa cells [16],2100 pg/10^4 cells
B2,Quantity of molecules internalized,HeLa cells [16],1700 pg/10^4 cells
